Assay results from patent US20120165319A1, “INHIBITORS OF INTERLEUKIN-1 BETA CONVERTING ENZYME” (VERTEX PHARMACEUTICALS INCORPORATED, priority 1995, published 2012).
Where two headings read alike, the source gives them in different places.

How the values were obtained:
[1] = system: IL-1β production, LPS-challenged mice; assay: In vivo acute assay for efficacy as anti-inflammatory agent: LPS-induced IL-1β production in mice; set-up: species or system mouse; settings: for inhibition at 50 mg/kg: Mus musculus, po, read-out: percent inhibition of IL-1β production; for inhibition at 50 mg/kg / percent inhibition of IL-1β production: LPS challenged mice, compound PO, 50 mg/kg; for Inhibition (%) of IL-1β production in LPS-challenged mice: oral, dosed at time of LPS challenge
Experimental: In Vivo Acute Assay for Efficacy as Anti-Inflammatory Agent
LPS-Induced IL-1β Production.
Efficacy of 214e and 217e was evaluated in CD1 mice (n=6 per condition) challenged with LPS (20 mg/kg IP). […] Blood was collected seven hours after LPS challenge. Serum IL-1β levels were measure by ELISA. […] Similar results were obtained in a second experiment. […] However, a clear dose response was not apparent.
Compounds 214e and 217e (50 mg/kg) were also administered by oral gavage to assess absorption.
The efficacy of analogs of 214e were also evaluated in LPS challenged mice after IP administration (FIG. 9) and PO administration (FIG. 10).
[…] The protocol is described in Example 7.

IL-1β, human whole blood = assay: Whole blood assay for IL-1β production; format: cell-based; settings: Table 17; read-out: Whole human blood IC50
Summary of the method: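 IL-1β was quantified by ELISA in plasma diluted 1:200. The plasma came from EDTA-anticoagulated human whole blood incubated at 30 °C for 16-18 h with LPS (final 5.0 ng/ml) plus a saline serial dilution of compound. Controls were no-LPS, no-inhibitor and highest-vehicle.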

[2] = 0 h, administered 0 h relative to time of LPS challenge
[3] = 2 h, administered −2 h relative to time of LPS challenge
[4] = administered 0 h relative to time of LPS challenge
[5] = administered −2 h relative to time of LPS challenge

| Structure (SMILES) | inhibition at 50 mg/kg [1, 2] | inhibition at 50 mg/kg [1, 3] | IC50 (IL-1β, human whole blood) | percent inhibition of IL-1β production [1, 4] | percent inhibition of IL-1β production [1, 5] | further results |
| --- | --- | --- | --- | --- | --- | --- |
| O=C(CN1C(=O)[C@@H](NC(=O)c2ccccc2)CN(C(=O)CO)c2ccccc21)N[C@H]1CC(=O)OC1OCc1ccccc1 (mixture of isomers) [Compound 695a, (3S)-2-Oxo-3-benzoylamino-5-hydroxyacetyl-N-[(2RS,3S)-benzyloxy-5-oxo-tetrahydrofuran-3-yl]-2,3,4,5-tetrahydro-1H-1,5-benzodiazepine-1-acetamide] | 78% | 49% | – | – | – | – |
| CN(C)c1ccc(C(=O)N[C@H]2CCC(=O)N3CCC[C@@H](C(=O)N[C@H]4CC(=O)OC4OCc4ccccc4)N3C2=O)cc1 (mixture of isomers) [Compound 213f, [1S,9S(2RS,3S)]9-[(4-Dimethylaminobenzoyl)amino]-6,10-dioxo-1,2,3,4,7,8,9,10-octahydro-N-(2-Benzyloxy-5-oxotetrahydrofuran-3-yl)-6H-pyridazino[1,2-a][1,2]diazepine-1-carboxamide] | – | – | 3 µM | 8% | (−4) % | – |
| Nc1ccc(C(=O)N[C@H]2CCC(=O)N3CCC[C@@H](C(=O)N[C@H]4CC(=O)OC4OCc4ccccc4)N3C2=O)cc1Cl (mixture of isomers) [Compound 213h, [1S,9S (2RS,3S)]9-[(3-Chloro-4-aminobenzoyl)amino]-6,10-dioxo-1,2,3,4,7,8,9,10-octahydro-N-(2-Benzyloxy-5-oxotetrahydrofuran-3-yl)-6H-pyridazino[1,2-a][1,2]diazepine-1-carboxamide] | – | – | 1.5 µM | 53% | 9% | – |
| COc1ccc(C(=O)N[C@H]2CCC(=O)N3CCC[C@@H](C(=O)N[C@H]4CC(=O)OC4OCc4ccccc4)N3C2=O)cc1 (mixture of isomers) [Compound 213i, [1S,9S(2RS,3S)]9-[(4-Methoxybenzoyl)amino]-6,10-dioxo-1,2,3,4,7,8,9,10-octahydro-N-(2-Benzyloxy-5-oxotetrahydrofuran-3-yl)-6H-pyridazino[1,2-a][1,2]diazepine-1-carboxamide] | – | – | 1.1 µM | 62% | (−11) % | – |
| CC(=O)N1C[C@H](NC(=O)c2cc(Cl)c(O)c(Cl)c2)C(=O)N(CC(=O)N[C@H]2CC(=O)OC2OCc2ccccc2)c2ccccc21 (mixture of isomers) [Compound 655, (3S)-2-Oxo-3-(3,5-dichloro-4-hydroxybenzoyl)amino-5-acetyl-N-[(2RS,3S)-benzyloxy-5-oxo-tetrahydrofuran-3-yl]-2,3,4,5-tetrahydro-1H-1,5-benzodiazepine-1-acetamide] | – | – | – | 68% | 0% | – |
| CCO[C@H]1OC(=O)C[C@@H]1NC(=O)[C@@H]1CCCN2C(=O)CC[C@H](NC(=O)c3nccc4ccccc34)C(=O)N12 [Compound 412e, [1S,9S(2S,3S)]N-(2-Ethoxy-5-oxotetrahydrofuran-3-yl)-6,10-dioxo-9-(isoquinolin-1-oylamino)-1,2,3,4,7,8,9,10-octahydro-6-H-pyridazino[1,2-a][1,2]diazepine-1-carboxamide] | – | – | – | – | – | Inhibition (%) of IL-1β production in LPS-challenged mice ([1]; 10 mg/kg dose): 5%; Inhibition (%) of IL-1β production in LPS-challenged mice ([1]; 25 mg/kg dose): 17%; Inhibition (%) of IL-1β production in LPS-challenged mice ([1]; 50 mg/kg dose): 61% |
| CCOC(=O)C[C@@H](C=O)NC(=O)[C@@H]1CCCN2C(=O)CC[C@H](NC(=O)c3ccccc3)C(=O)N12 [Compound 2100i, [3S(1S,9S)]3-(9-Benzoylamino-6,10-dioxo-1,2,3,4,7,8,9,10-octahydro-6H-pyridazino[1,2-a][1,2]diazepine-1-carboxamido)-4-oxobutanoic acid ethyl ester] | 74% | 19% | – | – | – | – |
| O=C1C[C@H](NC(=O)[C@@H]2CCCN3C(=O)CC[C@H](NC(=O)c4ccccc4)C(=O)N23)[C@H](OC2Cc3ccccc3C2)O1 [Compound 2100m, [1S,9S (2R,3S)]9-Benzamido-6,10-dioxo-N-[2-(2-indanyloxy)-5-oxo-tetrahydrofuran-3-yl]-1,2,3,4,7,8,9,10-octahydro-6H-pyridazino[1,2-a][1,2]diazepine-1-carboxamide] | 42% | 40% | – | – | – | – |
